row,Structure (SMILES),melting point [°C]
1,O=C(CCNC(=O)[C@H](Cc1ccc(-c2ccccc2)cc1)NCP(=O)(O)Oc1ccccc1)OCc1ccccc1,243 to 244
2,CCOC(=O)N(c1ccc(Cl)cc1)c1ccccc1[N+](=O)[O-],90 to 93
3,CCCc1nc2cc(C)c(NC(=O)c3cc(C(F)(F)F)nn3-c3ncccc3Cl)c(C(=O)NC(C)C)c2cc1CC,213 to 220
4,COc1nc(C)cc(-n2cncn2)n1,98 to 98.5
5,COC(=O)C(Cc1ccc(OCCc2nc(-c3ccccc3)oc2C)cc1)C(=O)NC(C)=O (configuration not stated),126 to 128
6,O=C(Nc1cc2ncc(CN3CCCC3)cc2cc1N1CCCC1)c1ccc(Br)cc1,171 to 173
7,COc1cc2c(cc1OC)C(=O)C(=Cc1cc(C)c([N+](=O)[O-])c(C)c1)C2,242 to 243
8,O=c1ccc2ccc(CNCCNc3ccccc3)cc2o1,81 to 83
9,Cc1cc(-c2ccc(Cl)cc2)cn2c(-c3nc(-c4cccc(S(N)(=O)=O)c4)no3)cnc12,301
10,CC(=O)C=Cc1ccc(NS(C)(=O)=O)c(Oc2ccc(F)cc2F)c1,130 to 132
11,O=[N+]([O-])c1cc([C@@H]2CO2)ccc1OCc1ccccc1,66
12,Cc1c(NC(=O)c2ccc(OCc3cccc(F)c3)cc2)ccc2cc(CN3CCCC3)cnc12,151 to 152
13,CCC(CC)Oc1nc(C)nc(Cc2c(C)cc(C)cc2C)c1C,82 to 84
14,CCOC(=O)C(C#N)=Cc1cccc(C(F)(F)F)c1Cl,50
15,COc1ccc(OC)c(CN[C@H]2[C@H]3CCN(C[C@@H]3C(N)=O)[C@H]2C(c2ccccc2)c2ccccc2)c1 (relative stereo),127 to 129
16,COc1ccc(N2CCN(c3ccc(OC)nc3-c3ccc(C(C)(C)O)cc3)CC2)cc1,138 to 144
17,CCOC(=O)C=C(C)C=CC=C(C)C=Cc1c(C)c(C)c(OC)c(C)c1Cl,90
18,Nc1ccc(C(=O)Nc2ccc(-c3c[nH]c(=O)cn3)cc2)cc1,> 300
19,COCCCn1c2cc(Cl)ccc2n2c(C)nnc12,136

row,Structure (SMILES),melting point [°C]
1,CCN(CC)C(=O)Oc1nc(-c2ccc(C)cc2)cc2ccccc12,98
2,CN(c1cc(OCCCS(C)(=O)=O)cc2cc(C(=O)NCC(CN3CCN(S(C)(=O)=O)CC3)SCc3ccccc3)[nH]c12)S(=O)(=O)c1ccccn1 (configuration not stated),195 to 196
3,O=Cc1cc(OCCCC(=O)O)ccc1[N+](=O)[O-],112 to 114
4,CC(C)OC(=O)N1CCC(c2nc3cc(-c4ccc(-n5cnnn5)c(F)c4)ccc3o2)CC1,187 to 191
5,O=C1CCc2cc(Cl)cc(Cl)c2C1,90 to 92
6,CN(Cc1cccc2c1C(=O)N(C1CCC(=O)NC1=O)C2=O)C(=O)NC1CCCCC1 (configuration not stated),243 to 245
7,IC#CCn1c2ccccc2c2ccccc21,151 to 152
8,O=C(O)C1=Cc2cc(C(F)(F)F)ccc2OC1C(F)(F)F (configuration not stated),144 to 145
9,CCOc1cc2cc(C(=O)O)cc(-c3ccnc(Cl)c3)c2cc1OCC,> 250
10,CCOC(=O)c1cc(OC)c(OCCOC)cc1[N+](=O)[O-],68 to 69
11,COCc1nc2c(NCc3c(C)cccc3C)cc(C(=O)N(C)C)cc2n1C,156 to 157
12,Cc1cc(Nc2ccccc2C(=O)N2CCCCC2)ccn1,93 to 95
13,CS(=O)(=O)c1cccc(Nc2cc(-c3ccccc3OCc3ccccc3)ncn2)c1,199 to 205
14,CC(C)Cn1c(CN)c(-c2ccccc2)c2cc(/C=C/C(N)=O)ccc2c1=O,228 to 230
15,CCCc1nc2c(N)nc3cc(Oc4ccccc4C(=O)OC)ccc3c2n1CC(C)C,167 to 168
16,O=C(O)c1ccc(C(=O)N(Cc2ccccc2)S(=O)(=O)c2ccc(Br)cc2)cc1,193 to 194
17,CN1CCN(CCc2[nH]c(=O)[nH]c2-c2ccc(F)cc2)CC1,237 to 239
18,Nc1nnc(-c2ccccc2Nc2cccc(C(F)(F)F)c2)s1,122 to 123
